The values that follow come from patent publication US20100210682A1, “Repeated Dosing of TRPV1 Antagonists” (ABBOTT LABORATORIES, priority 2009, published 2010).

Data set [1] has as its system MIA-induced osteoarthritic rats. The data set is described as follows: Osteoarthritic pain model in rats (MIA), weight bearing difference. It is filed as in vivo. The following applies: po, 96 h; rat, p.o., acute dosing, 4 days following MIA injection; read-out: ED50, reversal of difference in weight bearing. On the procedure: Unilateral knee joint osteoarthritis was induced in the rats by a single intraarticular (i.a.) injection of sodium monoiodoacetate (MIA) (Sigma, St. Louis, Mo.) (3 mg in 0.05 mL sterile isotonic saline) into the joint cavity using a 26 G needle under light (2-4%) halothane (Halocarbon Laboratories, River Edge, N.J.) anesthesia [Bove S E, Calcaterra S L, Brooker R M, Huber C M, Guzman R E, Juneau P L, et al. Weight bearing as a measure of disease progression and efficacy of anti-inflammatory compounds in a model of monosodium iodoacetate-induced osteoarthritis. Osteoarthritis Cartilage 2003; 11:821-30]. […]
MIA-induced nociception can be assessed by measuring differences in weight bearing (WBD) or decrease in grip force (GF) several days to weeks following MIA injection [Bove S E, Calcaterra S L, Brooker R M, Huber C M, Guzman R E, Juneau P L, et al. Weight bearing as a measure of disease progression and efficacy of anti-inflammatory compounds in a model of monosodium iodoacetate-induced osteoarthritis. […]
Differences in weight bearing on the injured vs uninjured hind limb were assessed by placing the animals in an Incapacitance Tester (Linton, Stoelting, Wood Dale, Ill.). […] The animals were allowed to acclimate for approximately 30 s before weight-bearing readings (measured in grams) were recorded. […]

For data set [2], the system named is post-operative thermal hyperalgesia. The data set is described as follows: Post-operative pain model in rats (skin incision), thermal hyperalgesia. As to conditions: po; rat, p.o., acute dosing, 24 h post-injury; read-out: ED50, reversal of thermal hyperalgesia. The data set is classed as in vivo. The procedure: The response to acute thermal stimulation was determined using a commercially available paw thermal stimulator (UARDG, University of California, San Diego, Calif.). Rats were placed individually in Plexiglass cubicles mounted on a glass surface maintained at 30° C., and allowed a 30 min habituation period. A thermal stimulus, in the form of radiant heat emitted from a focused projection bulb, was then applied to the plantar surface of each hind paw. In each test session, each rat was tested in three sequential trials at approximately 5 min intervals. Paw withdrawal latencies (PWLs) were calculated as the mean of the two shortest latencies. An assay cut-off was set at 20.5 s.
As described by Brennan et al. [Brennan T J, Vandermeulen E P, Gebhart G F. Characterization of a rat model of incisional pain. Pain 1996; 64:493-501], a 1 cm longitudinal incision was made through the skin and fascia of the plantar aspect of the foot, starting 0.5 cm from the proximal edge of the heel and extending toward the toes. The plantaris muscle was elevated and incised longitudinally with origin and insertion of the muscle remaining intact. The skin was then closed with two 5-0 nylon mattress sutures. After surgery, the animals were allowed to recover and housed individually with soft bedding. Animals were tested for mechanical allodynia using von Frey hairs and for thermal hyperalgesia as described above. […]

Data set [3] can be described thus: Plasma levels in osteoarthritic rats after acute and repeated dosing. The data set is classed as in vivo, rat. As to conditions: derived from modeling of PK/PD data from acute and chronic dosing studies. On the procedure:
(§1) In the osteoarthritic pain model, animals were dosed twice-daily for 12 days using a dose that was non-efficacious following a single administration (e.g. 3 μmol/kg p.o. for Compound A). The animals were tested 1 hour after acute dosing (p.o.) and on day 12, 1 hour after oral dosing with either vehicle or the test compound.

In data set [4] the test system is capsaicin-induced flinching behaviors. The data set is described as follows: Capsaicin-induced acute pain (flinching) in rats. As to conditions: rat, acute dosing, 2.5 μg capsaicin into hind paw. It is filed as in vivo. On the procedure: Rats were placed in individual observation cages. Following an acclimation period of 30 min, the test compound was administered. Two hours later, 2.5 μg of capsaicin in a 10 μL solution of 10% ethanol/90% hydroxypropyl-b-cyclodextrin was injected subcutaneously into the dorsal aspect of the right hind paw. The observation cage was then suspended above mirrors in order to facilitate observation of the rat. […] The number of flinching behaviors of the injured paw was recorded during the 5 minutes observation period. Compound A was dissolved in 100% polyethylene glycol (PEG 400) for oral administration in a 2 mL/kg injection volume. Compounds B, C, and D were dissolved in 10% ethanol, 20% Tween 80 and 70% polyethylene glycol-400 for oral administration in a 2 mL/kg injection volume. All compounds were dosed orally (p.o.) 60 minutes before behavioral testing.

The test system of data set [5] is MIA-induced osteoarthritic rats. The data set is described as follows: Osteoarthritic pain model in rats (MIA), hind limb grip force. The following applies: for ED50: po, p.o., acute dosing. It is filed as in vivo, rat. The procedure:
Unilateral knee joint osteoarthritis was induced in the rats by a single intraarticular (i.a.) injection of sodium monoiodoacetate (MIA) (Sigma, St. Louis, Mo.) (3 mg in 0.05 mL sterile isotonic saline) into the joint cavity using a 26 G needle under light (2-4%) halothane (Halocarbon Laboratories, River Edge, N.J.) anesthesia [Bove S E, Calcaterra S L, Brooker R M, Huber C M, Guzman R E, Juneau P L, et al. Weight bearing as a measure of disease progression and efficacy of anti-inflammatory compounds in a model of monosodium iodoacetate-induced osteoarthritis. Osteoarthritis Cartilage 2003; 11:821-30]. Following injection, the animals were allowed to recover from the effects of anesthesia (usually 5-10 min) before returning them to their home cages.
MIA-induced nociception can be assessed by measuring differences in weight bearing (WBD) or decrease in grip force (GF) several days to weeks following MIA injection [Bove S E, Calcaterra S L, Brooker R M, Huber C M, Guzman R E, Juneau P L, et al. Weight bearing as a measure of disease progression and efficacy of anti-inflammatory compounds in a model of monosodium iodoacetate-induced osteoarthritis. Osteoarthritis Cartilage 2003; 11:821-30; Fernihough J, Gentry C, Malcangio M, Fox A, Rediske J, Pellas T, et al. Pain related behaviour in two models of osteoarthritis in the rat knee. Pain 2004; 112:83-93].
In addition to weight-bearing differences, grip strength was also assessed in osteoarthritic rats approximately 21 days after MIA injection. Measurements of peak hind limb grip force were conducted by recording the maximum compressive force exerted on the hind limb strain gauge setup, in a commercially available grip force measurement system (Columbus Instruments, Columbus, Ohio). During testing, each rat was gently restrained by grasping around its rib cage and then allowed to grasp the wire mesh frame (10-12 cm^2) attached to the strain gauge. The experimenter then moved the animal in a rostral-to-caudal direction until the grip was broken. Each rat was sequentially tested twice at an approximately 2 min interval to obtain a raw mean grip force […]. These raw mean grip force data were in turn converted to a maximum hind limb compressive force (CFmax) (gram force)/kg body weight for each animal. A group of age-matched naïve animals was added to each experiment and the data obtained from the different dose groups for the compound being tested were compared to the naïve group.
Compound A was dissolved in 100% polyethylene glycol (PEG 400) for oral administration in a 2 mL/kg injection volume. Compounds B, C, and D were dissolved in 10% ethanol, 20% Tween 80 and 70% polyethylene glycol-400 for oral administration in a 2 mL/kg injection volume. All compounds were dosed orally (p.o.) 60 minutes before behavioral testing.
as §1
The analgesic responses were shown as % effect relative to the healthy, untreated rats (naïve group).

The structures appear in SMILES notation. Converted amounts (≈) assume the structure as drawn. Marks after values point to notes of the source that are not given here.

For the molecule `CC(C)(C)c1ccc2c(c1)CC[C@H]2NC(=O)Nc1cccc2[nH]ncc12` [Compound A, N-[(1R)-5-tert-butyl-2,3-dihydro-1H-inden-1-yl]-N′-1H-indazol-4-ylurea], the ED50 came to 30 µmol/kg in data set [1]; 40 µmol/kg in data set [2]; 8 µmol/kg in data set [5] (Rattus norvegicus, grip force, MIA-induced osteoarthritic rats, read-out: Acute ED50 (μmol/kg; 95% Cl)); 10 µmol/kg in data set [5] (480 h, rat, 20 days following MIA injection, read-out: ED50, reversal of decrease in grip force). Besides, the “Plasma Levels, Chronic” value in data set [3] (3 μmol/kg BID 12 days) was 17** at 3 μmol/kg ng/mL. This molecule came in with an EC50 in data set [3] (Rattus norvegicus, osteoarthritic rats) of 0.085 µg/mL (≈ 0.244 µM). For the same molecule, the capsaicin-induced flinching behaviors result in data set [4] is listed as “dose-dependently prevented”. Besides, the “% Efficacy at Reduced Dose, Chronic (BID, 12 days)” value in data set [5] (grip force, 3 μmol/kg p.o. BID 12 days, relative to naïve group) is 62%. Also, in data set [5] (grip force, 3 μmol/kg p.o., 1 hour after acute dosing, relative to naïve group), the “% Efficacy at Reduced Dose, Acute” value was 20%. The “analgesic effects following repeated dosing vs acute dosing” value in data set [5] (grip force, BID 12 days, reduced dose) is listed as “significantly increased”.
